# Data reported in US8975251B2, “Methods of improving cognitive functions” (Bar-Ilan University, priority 2009, dated 2015).
# “Also recorded” adds a separate entry of the source. Structures can show the parent of a compound that is named as a salt.
# Key:
# [1] = tested on: PCP-induced reversal learning deficit; assay: PCP-induced reversal learning task in rats; format: in vivo, rat
# From the text: Antipsychotic drugs: BL-1020 (perphenazine 4-aminobutyrate, mesylate salt; BioLineRx Ltd., Israel; administered per os); risperidone (Sigma, UK; administered intra-peritoneally); and perphenazine (Sigma, Israel; administered per os).
# GABAA antagonists: picrotoxin (Sigma, UK; administered intra-peritoneally); and bicuculline (Sigma, UK; administered intra-peritoneally).
# Female hooded-Lister rats (Charles River, UK) were housed in groups of five under standard laboratory conditions under a 12 hr diurnal cycle. Rats were maintained at approx 85% of free-feeding body weight average (250 grams) for the duration of the study.
# Following habituation to the operant chambers, rats were trained to respond for food on an FR1 (Fixed Ratio 1) schedule of reinforcement with active levers active, as described by Abdul-Monim et al. (J. Psychopharmacology 17: 57-65, 2003). When a proper response for food was established the rats were trained to press either the left or right lever (only one of levers was active) for food delivery. The active lever was varied from day to day using a pseudorandom Gellerman schedule, which randomly assigns either the left or right lever as active, thus avoiding generation of a lever bias. Each session lasted 20 minutes and counts were recorded on each lever.
# Following completion of the first phase of training (within about two weeks) the rats were trained to respond ter food according to the position of a visual cue (a lit LED). Half of the rats were trained to press the lever under the lit LED in order to receive a food reward. The other half of the rats were trained on the opposite contingency (i.e., to press the lever under the non-lit LED). Each training session began with illumination of the house-light. After three seconds both levers, together with the visual cue, were presented. The cue was presented for one second. […] The levers were then retracted and the house light was extinguished for a three-second time-out period, during which the pellet was consumed (if a correct response had been made). The house-light was then turned on again and the cycle repeated. Following 128 lever presses (which lasted approximately 30 minutes) the training session was terminated.
# Each rat had one training session per day. Rats were required to make at least 115 responses on the correct lever (90% correct responding) on at least three consecutive days (which was generally achieved within two weeks). The contingency (visual cue, i.e. LED on or off, relative to active lever) remained constant during this period, though the position of the active lever varied from day to day according to a pseudo-random Gellerman schedule.
# Subsequently, rats were trained until they again reached criterion on the opposite contingency (which was generally achieved within two weeks)). Rats achieved criterion at the same rate irrespective of whether they responded to one rule or the other. […]
# Following a 7 day drug (PCP)-free period the rats were treated with test agents (antipsychotic drugs and GABAA-receptor antagonists). Sixty minutes later the rats were exposed for five-minutes (“initial phase”) to the same contingency (cue position relative to active lever) as was during the operant training session and their responses (pressing on correct and incorrect levers) were recorded. Following a two-minutes recess the animals were exposed for five-minutes to a reversed contingency (“reversal phase”) during which their responses (pressing on correct and incorrect levers) were recorded. […]
# [2] = tested on: patients having acute exacerbation of schizophrenia; assay: Clinical trial, Brief Assessment of Cognition in Schizophrenia (BACS); format: in vivo, human; conditions: for BACS mean change from baseline at Day 42, Mean (SD): 42 days; for BACS Difference in LS-mean vs. Risperidone (ANCOVA) / BACS Difference in LS-means vs. Placebo (ANCOVA): Day 42; for cognitive functions as compared to the placebo: schizophrenic patients, human clinical trial
# Description: The trial was conducted at forty sites located in the USA, Europe and India. For the trial 363 patients were recruited and randomized equally. Drugs (BL-1020, 10 mg/day; BL-1020, 20-30 mg/day; risperidone, 2-8 mg/day and placebo) have been administered to designated patients (double blinded) daily over a period of 42 days.
# Key secondary efficacy measures included the Clinical Global Impression of Severity (CGI-S), the Clinical Global Impression of Change (CGI-C) from baseline, and effect on cognition as measured by the Brief Assessment of Cognition in Schizophrenia (BACS). Risperidone at a dose of 2-8 mg was included as a positive control to validate the study results.
# Assessments of cognitive functions of treated patients have been performed on day zero (baseline) and on day 42 (end of study), using the test battery designed for use in patients with schizophrenia [Richard Keefe (Ed.), Brief Assessment of Cognition in Schizophrenia (BACS) Version 3.0, Duke University Medical Center, 1999; and Keefe et al., Schizophrenia Research, 68: 283-297, 2004]. The battery consists of brief assessments of processing speed, reasoning and problem solving and verbal and working memory. A composite score is obtained by summing the z-scores of six measures (verbal memory, digit sequencing, token motor task, fluency, symbol coding and Tower of London).
compound,measurement,setting,value
"NCCCC(=O)OCCN1CCN(CCCN2c3ccccc3Sc3ccc(Cl)cc32)CC1 [BL-1020, 4-amino-butyric acid 2-{4-[3-(2-chloro-phenothiazin-10-yl)-propyl]piperazin-1-yl}-ethyl ester]",effect on PCP-induced reversal learning deficit (percent correct response),"[1]; BL-1020 3 mg/kg per os, 60 min before task, p<0.01, 3 mg/kg",significantly improved; also recorded: significant improvement
same,"BACS test mean score at Baseline, Mean (SD)","[2]; BL-1020 10 mg/day group, day 0, n = 90",16.7 (15.5)
same,"BACS mean change from baseline at Day 42, Mean (SD)",[2]; BL-1020 10 mg/day,5.1 (7.1)
same,BACS Difference in LS-mean vs. Risperidone (ANCOVA),[2]; BL-1020 10 mg/day,0.11
same,BACS Difference in LS-means vs. Placebo (ANCOVA),[2]; BL-1020 10 mg/day,0.63
same,"BACS test mean score at Baseline, Mean (SD)","[2]; BL-1020 30 mg/day group, day 0, n = 89",15.3 (15.5)
same,"BACS mean change from baseline at Day 42, Mean (SD)",[2]; BL-1020 30 mg/day,8.3 (8.5)
same,BACS Difference in LS-mean vs. Risperidone (ANCOVA),[2]; BL-1020 30 mg/day,3.40
same,BACS Difference in LS-means vs. Placebo (ANCOVA),[2]; BL-1020 30 mg/day,3.92
same,BACS score increase,"[2]; BL-1020 high dose 20-30 mg/day, after 42 days",8.3 points
same,cognitive functions as compared to the placebo,[2],significantly improved
"c1ccc(C2(N3CCCCC3)CCCCC2)cc1 [PCP, phencyclidine hydrochloride]",percent correct responding animals in the reversal learning task,"[1]; PCP 2 mg/kg intra-peritoneally twice daily for 7 days, p<0.01",significantly reduced
"Cc1nc2n(c(=O)c1CCN1CCC(c3noc4cc(F)ccc34)CC1)CCCC2 [Risperidone, risperidone, reference compound]","BACS test mean score at Baseline, Mean (SD)","[2]; Risperidone 8 mg/day group, day 0, n = 91",13.5 (12.3)
same,"BACS mean change from baseline at Day 42, Mean (SD)",[2]; Risperidone 8 mg/day,5.7 (6.2)
same,BACS Difference in LS-means vs. Placebo (ANCOVA),[2]; Risperidone 8 mg/day,0.52
same,cognitive functions as compared to the placebo,[2],failed to improve cognitive functions
OCCN1CCN(CCCN2c3ccccc3Sc3ccc(Cl)cc32)CC1 [perphenazine],effect on PCP-induced reversal learning deficit (percent correct response),[1]; perphenazine 2.49 mg/kg per os (equivalent to perphenazine moiety in 3 mg/kg BL-1020),did not significantly improve; also recorded: failed to improve cognitive functions
picrotoxin,effect on BL-1020 improvement of PCP-induced reversal learning deficit,"[1]; picrotoxin 0.5 mg/kg co-administered with BL-1020 3 mg/kg, p<0.001",negated the BL-1020 effect
same,effect on PCP-induced reversal learning deficit (percent correct response),"[1]; picrotoxin 0.25, 0.5 and 1 mg/kg intra-peritoneally",did not significantly improve
